≈ marks a conversion by molar mass, not a printed value. Where “and” joins values, the source holds several entries; their conditions need not be identical. Identical values can stand only once. Like-named read-outs stand apart in the source and are kept apart here.

The subject of test [1] is Clostridium perfringens (CL-15, Type-A). The class given is in vivo, broilers (male Cobb 500). To be noted: SF: salinomycin 0.042% in feed, day 21.
The test system is the same in test [2]. The class given is in vivo, broilers (male Cobb 500). To be noted: SF: salinomycin 0.042% in feed.
The nature of test [3]: Evaluation of litter score (percent caked litter). The class given is in vivo, broilers (male Cobb 500). The note with it: SF: salinomycin 0.042% in feed; day 28. As to the method:
Evaluation of Litter Score. The litter from each pen was evaluated on day 28 of the trial. The litter was evaluated based on percentage of caked litter in the pen. The percentages were grouped from 0-19, 20-39, 40-59, 60-79, and 80-100%. The mid-value from the percentage range was used to calculate the average pen litter score.

Test [4] can be described thus: Growth performance and feed efficiency of challenged broilers. The class given is in vivo, broilers (male Cobb 500). The note with it: SF: salinomycin 0.042% in feed; for Avg. daily gain / Weight gain: per bird. An excerpt:
Bird Placement. The birds in this study were sourced from a commercial hatchery and were housed at the Colorado Quality Research facility (CQR). Healthy male Cobb 500 were used in this study and were vaccinated for Mareks at the hatchery and upon arrival at CQR the birds were vaccinated for Newcastle and Infectious Bronchitis and were randomly divided into five treatments. At placement 24 birds were placed into each pen with 11 replicates per treatment. On day eight birds were culled or replaced as needed to have 22 birds per pen with the pen being the statistical unit. The treatments were assigned to blocks and randomized within blocks. All birds in this experiment were discarded on site. All data was collected by the Colorado Quality Research (CQR) staff. The protocol MS-18-1 was approved by the CQR IACUC committee.
Basal and Experimental Diets. The starter, grower, and basal diets were manufactured at the CQR feed mill using CQR formulated diets and described in Table 1. The feed was made and stored in bulk. The final experimental diet mixing, pelleting and crumbling was conducted at CQR using a 500-lb capacity vertical mixer (Seedburo, Golden Valley, MN), a 4000-lb capacity vertical mixer (Prater, Bolingbrook, IL) and/or a 14,000-lb horizontal mixer (H&S Manufacturing, Marshfield, WI) and a California pellet mill (CPM Co., Crawfordsville, IN). The feed was stored in 50-lb feed sacks until needed.
The product was made fresh daily and administered in the water using a liquid medicator (Farmer Boy Ag, Myerstown, PA). A different stock solution was prepared for each treatment and the stock solutions were weighed each day to determine the amount of product consumed. The stock solutions were adjusted accordingly to ensure that the correct dose has been administered based on water consumption. The antibiotic control SF birds were administered Salinomycin (Sacox 60, Phibro Animal Health Corp., Teaneck, NJ) in the feed at 0.042% for the whole experimental period. […] If abnormal conditions or abnormal behavior is noted at any of the twice-daily observations they were documented and added to the study records. The maximum and minimum temperatures were recorded daily. The dead birds were collected and counted each day from each pen. The mortality was recorded on pen sheet and the cause of death was recorded. The pen mortality and the NE-associated mortality were calculated based on total mortality and as a percentage. The percentages were calculated based on the number of re-count birds on day 8. The birds were weighed on day 0, 17, 28, and 35 and the average daily gain was calculated for each of these time periods. The final pen weight was also measured. The amount of feed consumed was calculated from the starter feed (DO-17), the grower feed (D18-28), finisher feed (D29-35), and over the whole period (DO-35). The feed efficiency and adjusted feed efficiency were calculated to compare different growth periods. On day 21, 5 birds from each pen were randomly selected using a first caught method. The birds were sacrificed and evaluated for intestinal lesions to score the severity of the lesion scores using the scale in Table 4.

The test system of test [5] is MRSA LA. Put plainly: microbe, parasite or virus in culture. The class given is cell-based. To be noted: Staphylococcus aureus, 24 h.
Test [6] deals with MRSA 81M. Put plainly: microbe, parasite or virus in culture. The class given is cell-based. To be noted: Staphylococcus aureus, 24 h.
[7] abbreviates: Day 28-35, % of birds at day 8 re-count.

Regarding `CC[C@@H](C(=O)[C@@H](C)[C@@H](O)[C@H](C)[C@@H]1O[C@@H]([C@@H](CC)C(=O)O)CC[C@@H]1C)[C@H]1O[C@]2(C=C[C@@H](O)[C@]3(CC[C@@](C)([C@H]4CC[C@](O)(CC)[C@H](C)O4)O3)O2)[C@H](C)C[C@@H]1C` [Salinomycin, salinomycin], the “Reduction in lesion score compared to NTC” value in test [1] is on record as 50.6%. In test [1] (scale 0-4), the Average lesion score was found to be 0.80. Also, the “Total Mortality” value was “(2.1%)” in test [2] (Day 0-17, % of birds at day 8 re-count); 5 in test [2] (Day 0-17, birds dead); “(5.4%)” in test [2] (Day 0-35, % of birds at day 8 re-count); 13 in test [2] (Day 0-35, birds dead); “(2.1%)” in test [2] (Day 17-28, % of birds at day 8 re-count); 5 in test [2] (Day 17-28, birds dead). Besides, the “Total Mortality” value is “(1.2%)” in test [2] (setting [7]) and 3 in test [2] (Day 28-35, birds dead). In addition, the “NE Mortality” value is reported as 5 in test [2] (Day 0-35, birds dead); 4 in test [2] (Day 17-28, birds dead); “(0.4%)” in test [2] (setting [7]); 1 in test [2] (Day 28-35, birds dead). Besides, the “Average percent caked litter” value in test [3] was found to be 79%. In addition, the “Adj. F:G (adjusted feed-to-gain ratio)” value in test [4] (D 0-17) worked out at 1.287; in test [4] (D 0-28) it was 1.368; in test [4] (D 0-35) it was 1.448; in test [4] (D17-28) it was 1.421; in test [4] (D 28-35), 1.654. Also, the “F:G (feed-to-gain ratio)” value in test [4] (D 0-17) amounted to 1.320; in test [4] (D 0-28), 1.656; in test [4] (D 0-35), 1.666; in test [4] (D17-28), 1.947; in test [4] (D 28-35), 1.691. Moreover, the Avg. daily gain worked out at 28.1 g/day in test [4] (D 0-17); 50.3 g/day in test [4] (D 0-28); 59.6 g/day in test [4] (D 0-35); 84.4 g/day in test [4] (D 17-28); 97.1 g/day in test [4] (D 28-35). Besides, the Weight gain is listed as 0.479 kg in test [4] (D 0-17); 1.407 kg in test [4] (D 0-28); 2.087 kg in test [4] (D 0-35); 0.928 kg in test [4] (D 17-28); 0.680 kg in test [4] (D 28-35). Also, the “Difference in weight gain compared to NTC” value in test [4] (D17-28) is given as −0.21%. The “Weight gain less than NTC birds” value in test [4] (D17-28) came out at 2 grams. Moreover, the “Increase in the harvest weight (final pen weight) compared to NTC” value in test [4] (day 35) came out at 18.2%. In test [4] (live pen weight at day 35), the Average pen weight was 34.59 kg and 34.59a kg.
For `CO[C@@]1(NC(=O)Cc2cccs2)C(=O)N2C(C(=O)O)=C(COC(N)=O)CS[C@@H]21` [cefoxitin], the values for the MIC in test [5] and in test [6] were 60 µg/mL (≈ 140 µM) and 100 µg/mL (≈ 234 µM), respectively.

The values above are taken from patent publication US20260124268A1 (priority 2019, published 2026).
